Experimental findings from US20040224981A1, “Antibacterial methods and compositions” (priority 2003, published 2004) are described below.

Experiment [1] deals with E. faecium. Kind of experiment: MIC against E. faecium. To be noted: Enterococcus faecium, ATCC33667; Table 8; E. faecium ATCC 33667; read-out: MIC. The class given is cell-based. On the procedure:
(§1) MRSi compound 5 alone and in combination with mupirocin was tested recent clinical isolates of E. faecalis (n=28) and E. faecium (n=23). Both the acetate salt and mupirocinate salts of MRSi compound 5 maintained potent activity against vancomycin-susceptible and—resistant enterococci (Tables 8, 9, and 10).

Experiment [2] deals with E. faecalis. As to the kind of experiment: MIC against E. faecalis. The class given is cell-based. To be noted: for MIC: Enterococcus faecalis, Table 8, read-out: MIC. As for the experimental part: The MRS inhibitor 4 alone and in combination with mupirocin (mupirocin salt and 1:1 combination) were tested against a collection of Gram-positive pathogens.
as §1

The test system of experiment [3] is S. aureus. Kind of experiment: MIC against S. aureus strains and clinical isolates (broth microdilution). The class given is cell-based, Staphylococcus aureus. As for the experimental part:
were tested against a collection of clinical isolates of S. aureus including strains that were multi-resistant to mupirocin and to other agents such as gentamicin and oxacillin.
The acetate and mupirocin salts of the MRS inhibitor compound 5 were tested against a collection of both low and high-level mupirocin resistant clinical isolates of S. aureus (Table 6).
The bacterial strains were tested for susceptibility to mupirocin and MRSi compound 2 using the broth microdilution method in accordance with NCCLS guideline to determine their MICs.
Briefly, the MIC and checkerboard titration assays were performed with strains in microtiter trays with cation-supplemented Mueller-Hinton broth (Difco). Inocula were prepared by suspending growth from blood agar plates in sterile saline to a density equivalent to that of a 0.5 McFarland standard and were diluted […] to produce a final inoculum of 5×10^5 CFU/ml. The trays were incubated aerobically overnight. Standard quality control strains were included with each run. Fractional inhibitory concentrations (FICs) were calculated as the MIC of drug A or B in combination/MIC of drug A or B alone, and the FIC index was obtained by adding the two FICs. FIC indices were interpreted as synergistic if the values were ≦0.5, additive or indifferent if the values were >0.5 to 4, and antagonistic if the values were >4.0.
A general note: Dilution methods test growth across graded concentrations, often in twofold steps.

Where [4] appears, read: recent clinical isolates of E. faecalis, ALL (28).
The mark [5] stands for this setting: all S. aureus isolates of Table 6.

Like-named read-outs stand apart in the source and are kept apart here.

For the compound `CC1(C)S[C@@H]2[C@H](NC(=O)[C@H](N)c3ccccc3)C(=O)N2[C@H]1C(=O)O` [Ampicillin, reference compound], the MIC was found to be 1 µg/mL in experiment [1]; 0.5 µg/mL in experiment [2] (ATCC 51299 / VRE, E. faecalis ATCC 51299 (VRE)); 0.5 µg/mL in experiment [2] (E. faecalis 1); 0.5 µg/mL in experiment [2] (E. faecalis 7).

As for `C=C(F)c1sc(CNCCCNc2cc(=O)c3ccccc3[nH]2)c(C)c1Br` [MRSi Cmpd 5 mupirocinate, N-(4-bromo-5-(1-fluorovinyl)-3-methylthiophen-2-ylmethyl)-N′(1H-quinolin-4-one)propane-1,3-diamine Mupirocinate], the MIC90 came out at 0.03 µg/mL in experiment [2] (E. faecalis, Van-R(11)); 0.03 µg/mL in experiment [2] (E. faecalis, Van-S (16)); 0.03 µg/mL in experiment [2] (setting [4]). For the same compound, the Mode (MIC) in experiment [2] (setting [4]) was 0.03 µg/mL.

For the compound `Cc1onc(-c2ccccc2)c1C(=O)N[C@@H]1C(=O)N2[C@@H]1SC(C)(C)[C@@H]2C(=O)O` [Oxacillin], the MIC is 4 µg/mL in experiment [3] (Staphylococcus aureus, ATCC43300, S. aureus ATCC 43300 (ORSA), read-out: MIC); over 64 µg/mL in experiment [3] (Staphylococcus aureus, NRS 1 / VISA, S. aureus NRS1 (VISA), read-out: MIC); over 64 µg/mL in experiment [3] (Staphylococcus aureus, NRS 1 / VISA, VISA, S. aureus NRS1 (Mu50), read-out: MIC); over 64 µg/mL in experiment [3] (Staphylococcus aureus, NRS 3 / VISA, VISA, S. aureus NRS3 (HIP5827), read-out: MIC); 64 µg/mL in experiment [3] (Staphylococcus aureus, NRS 4 / VISA, VISA, S. aureus NRS4 (HIP5836), read-out: MIC); 2 µg/mL in experiment [3] (Staphylococcus aureus, NRS 18 / VISA, VISA, S. aureus NRS18 (HIP06854), read-out: MIC). The MIC in experiment [3] (Staphylococcus aureus, NRS 24 / VISA, VISA, S. aureus NRS24 (HIP09143), read-out: MIC) is 32 µg/mL; in experiment [3] (Staphylococcus aureus, NRS 49 / VISA, VISA, S. aureus NRS49 (Korea), read-out: MIC) it was over 64 µg/mL; in experiment [3] (Staphylococcus aureus, NRS54, Table 6, high-level mupirocin-resistant S. aureus NRS54, read-out: MIC) it was over 64 µg/mL; in experiment [3] (Staphylococcus aureus, NRS 54 / VISA, VISA, S. aureus NRS54 (Brazil), read-out: MIC), over 64 µg/mL; in experiment [3] (Staphylococcus aureus, NRS 56 / VISA, VISA, S. aureus NRS56 (Brazil), read-out: MIC) it was over 64 µg/mL; in experiment [3] (Staphylococcus aureus, NRS107, S. aureus NRS107 (HL Mup rest.), read-out: MIC) it was 0.12 µg/mL. In addition, the minimum inhibitory concentration (MIC) is 0.12 µg/mL in experiment [3] (Staphylococcus aureus, NRS107, Table 6, high-level mupirocin-resistant S. aureus NRS107, read-out: MIC); 64 µg/mL in experiment [3] (Staphylococcus aureus, NRS127, Table 6, low-level mupirocin-resistant S. aureus NRS127, read-out: MIC); 16 µg/mL in experiment [3] (Staphylococcus aureus, S. aureus 10-420 (LL Mup. Rest.), read-out: MIC); over 64 µg/mL in experiment [3] (Staphylococcus aureus, S. aureus 14-354 (LL Mup. Rest.), read-out: MIC); over 64 µg/mL in experiment [3] (Staphylococcus aureus, S. aureus 25-670 (HL Mup. Rest.), read-out: MIC); over 64 µg/mL in experiment [3] (Staphylococcus aureus, S. aureus 31-1334 (LL Mup Rest.), read-out: MIC). Besides, the MIC was 0.25 µg/mL in experiment [3] (Staphylococcus aureus, S. aureus 36-1298 (LL Mup. Rest.), read-out: MIC); over 64 µg/mL in experiment [3] (Staphylococcus aureus, S. aureus 87-2797 (HL Mup. Rest.), read-out: MIC); over 64 µg/mL in experiment [3] (Staphylococcus aureus, S. aureus 87-2797 (Mup. Susc.), read-out: MIC); 16 µg/mL in experiment [3] (Staphylococcus aureus, S. aureus 101-100 (Mup. Susc.), read-out: MIC); over 64 µg/mL in experiment [3] (Staphylococcus aureus, S. aureus LZ1 (HL Mup rest.), read-out: MIC); over 64 µg/mL in experiment [3] (Staphylococcus aureus, S. aureus LZ6 (HL Mup rest.), read-out: MIC). Moreover, the minimum inhibitory concentration (MIC) in experiment [3] (Staphylococcus aureus, S. aureus LZ8 (LL Mup. Rest.), read-out: MIC) is over 64 µg/mL; in experiment [3] (Staphylococcus aureus, S. aureus LZ9, read-out: MIC), over 64 µg/mL; in experiment [3] (Staphylococcus aureus, S. aureus LZ10, read-out: MIC), over 64 µg/mL; in experiment [3] (Staphylococcus aureus, S. aureus Miles Hall, read-out: MIC), 0.25 µg/mL; in experiment [3] (Staphylococcus aureus, S. aureus Oxford, read-out: MIC) it was 0.015 µg/mL; in experiment [3] (Staphylococcus aureus, Table 6, S. aureus (mupirocin-susceptible) 010-100, read-out: MIC), 8 µg/mL. Also, the MIC was over 64 µg/mL in experiment [3] (Staphylococcus aureus, Table 6, S. aureus (mupirocin-susceptible) 087-2789, read-out: MIC); over 64 µg/mL in experiment [3] (Staphylococcus aureus, Table 6, S. aureus (mupirocin-susceptible) LZ9, read-out: MIC); over 64 µg/mL in experiment [3] (Staphylococcus aureus, Table 6, S. aureus (mupirocin-susceptible) LZ10, read-out: MIC); 8 µg/mL in experiment [3] (Staphylococcus aureus, Table 6, high-level mupirocin-resistant S. aureus 010-420, read-out: MIC); over 64 µg/mL in experiment [3] (Staphylococcus aureus, Table 6, high-level mupirocin-resistant S. aureus 25-670, read-out: MIC); over 64 µg/mL in experiment [3] (Staphylococcus aureus, Table 6, high-level mupirocin-resistant S. aureus 87-2797, read-out: MIC). The MIC in experiment [3] (Staphylococcus aureus, Table 6, high-level mupirocin-resistant S. aureus 1079101, read-out: MIC) is 0.25 µg/mL; in experiment [3] (Staphylococcus aureus, Table 6, high-level mupirocin-resistant S. aureus LZ1, read-out: MIC) it was over 64 µg/mL; in experiment [3] (Staphylococcus aureus, Table 6, high-level mupirocin-resistant S. aureus LZ6, read-out: MIC), over 64 µg/mL; in experiment [3] (Staphylococcus aureus, Table 6, low-level mupirocin-resistant S. aureus 014-354, read-out: MIC), over 64 µg/mL; in experiment [3] (Staphylococcus aureus, Table 6, low-level mupirocin-resistant S. aureus 031-1334, read-out: MIC) it was 64 µg/mL; in experiment [3] (Staphylococcus aureus, Table 6, low-level mupirocin-resistant S. aureus 036-1298, read-out: MIC) it was 8 µg/mL. The MIC is 8 µg/mL in experiment [3] (Staphylococcus aureus, Table 6, low-level mupirocin-resistant S. aureus 1081148, read-out: MIC); over 64 µg/mL in experiment [3] (Staphylococcus aureus, Table 6, low-level mupirocin-resistant S. aureus LZ8, read-out: MIC); 0.12 µg/mL in experiment [3] (Staphylococcus aureus, Table 6, low-level mupirocin-resistant S. aureus Miles Hall, read-out: MIC). The MIC50 in experiment [3] (Staphylococcus aureus, all S. aureus isolates of Table 6, read-out: MIC50) was over 64 µg/mL. The MIC90 in experiment [3] (Staphylococcus aureus, all S. aureus isolates of Table 6, read-out: MIC90) is over 64 µg/mL; in experiment [3] (Staphylococcus aureus, all S. aureus strains of Table 1, read-out: MIC 90) it was over 64 µg/mL.

Turning to Gentamicin, the MIC in experiment [3] (S. aureus 10-420 (LL Mup. Rest.)) was 64 µg/mL; in experiment [3] (S. aureus 14-354 (LL Mup. Rest.)), over 64 µg/mL; in experiment [3] (S. aureus 25-670 (HL Mup. Rest.)), over 64 µg/mL; in experiment [3] (S. aureus 31-1334 (LL Mup Rest.)), 64 µg/mL; in experiment [3] (S. aureus 36-1298 (LL Mup. Rest.)), 0.5 µg/mL; in experiment [3] (S. aureus 87-2797 (HL Mup. Rest.)), 0.25 µg/mL. Further, the MIC in experiment [3] (S. aureus 87-2797 (Mup. Susc.)) was found to be 0.25 µg/mL; in experiment [3] (S. aureus 101-100 (Mup. Susc.)), 0.12 µg/mL; in experiment [3] (S. aureus ATCC 43300 (ORSA)) it was 4 µg/mL; in experiment [3] (S. aureus LZ1 (HL Mup rest.)), 0.5 µg/mL; in experiment [3] (S. aureus LZ6 (HL Mup rest.)) it was 0.25 µg/mL; in experiment [3] (S. aureus LZ8 (LL Mup. Rest.)), 64 µg/mL. Further, the MIC was 64 µg/mL in experiment [3] (S. aureus LZ9); 64 µg/mL in experiment [3] (S. aureus LZ10); 0.5 µg/mL in experiment [3] (S. aureus Miles Hall); over 64 µg/mL in experiment [3] (S. aureus NRS1 (VISA)); 0.25 µg/mL in experiment [3] (S. aureus NRS107 (HL Mup rest.)); 0.5 µg/mL in experiment [3] (S. aureus Oxford). Moreover, in experiment [3] (all S. aureus strains of Table 1), the “MIC90” value was over 64 µg/mL.

For “N-(4-bromo-5-(1-fluorovinyl)-3-methylthiophen-2-ylmethyl)-N′(1H-quinolin-4-one)propane-1,3-diamine Mupirocinate [MRSi Cmpd 5 mupirocinate]”, in experiment [3] (setting [5]), the MIC50 stood at 0.12 µg/mL and the MIC90 was determined as 1 µg/mL.

What is called MIC is the lowest concentration that inhibits growth of the organism. In general, MIC50 refers to the lowest concentration that inhibits either 50% of growth or 50% of the strains tested, depending on the study.
